Assay results as given in patent publication US8546343B2, “Aminoglycoside antibiotics targeting bacterial 16S ribosomal RNA” (Eidgenoessische Technische Hochschule Zurich, priority 2007, dated 2013).
In brackets after ≈: the same amount, converted by molar mass.

Columns and labels:
[1] = test system: M. smegmatis ΔrrnB 1491C (16S rRNA position 1491 C, eukaryotic mitochondrial ribosome); assay: MIC, recombinant M. smegmatis with mutant ribosomes 1491C; type: cell-based, Mycobacterium smegmatis; conditions: M. smegmatis ΔrrnB 1491C mutant ribosomes; 72 h at 37° C.
Procedure, shortened: (§1)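 M. smegmatis single-rRNA-operon strain carrying the indicated 16S rRNA decoding-site alleles, introduced into the chromosomal operon and confirmed by sequencing. Colony-purified cultures were grown in LB with 0.05% Tween 80 and started at OD600 0.025. MIC was read in microtiter format against twofold drug dilutions.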

[2] = test system: AG011 Staph. aureus clinical isolate; assay: Standard MIC assay, AG011; type: cell-based, Staphylococcus aureus
Description: (§2) Selected compounds of the present invention were tested for antibiotic susceptibility using clinical isolates of Staphylococci, Enterococci and Escherichia coli as well as strains carrying defined resistance determinants and compared to well known antibiotics of the state of the art. Drug susceptibility was determined in standard MIC assays, i.e. by determination of the minimal drug concentration required to inhibit bacterial growth in vitro.

[3] = test system: M. smegmatis ΔrrnB (bacterial ribosomes); assay: MIC, recombinant M. smegmatis with bacterial (wild-type) ribosomes; type: cell-based, Mycobacterium smegmatis; conditions: 72 h at 37° C.
Procedure, shortened: as §1

[4] = test system: AG004 E. coli clinical isolate; assay: Standard MIC assay, AG004; type: cell-based, Escherichia coli
Description: as §2

AG016 S. aureus BM3002 = assay: Standard MIC assay, AG016; type: cell-based, Staphylococcus aureus
Description: as §2

[5] = test system: AG002 E. coli clinical isolate; assay: Standard MIC assay, AG002; type: cell-based, Escherichia coli
Description: as §2

AG006 E. coli BM13 = assay: Standard MIC assay, AG006; type: cell-based, Escherichia coli
Description: as §2

[6] = test system: AG019 E. faecalis JH2-2 (APH2″ AAC6′); assay: Standard MIC assay, AG019; type: cell-based, Enterococcus faecalis; conditions: E. faecalis JH2-2 (APH2″ AAC6′)
Description: as §2

[7] = test system: AG015 S. aureus BM3002 (ANT4′); assay: Standard MIC assay, AG015; type: cell-based, Staphylococcus aureus; conditions: S. aureus BM3002 (ANT4′)
Description: as §2

[8] = test system: AG014 Staph. epi. clinical isolate; assay: Standard MIC assay, AG014; type: cell-based, Staphylococcus epidermidis
Description: as §2

[9] = test system: AG007 E. coli BM13 (AAC3); assay: Standard MIC assay, AG007; type: cell-based, Escherichia coli; conditions: E. coli BM13 (AAC3)
Description: as §2

[10] = test system: AG013 Staph. epi. clinical isolate; assay: Standard MIC assay, AG013; type: cell-based, Staphylococcus epidermidis
Description: as §2

[11] = test system: AG003 E. coli clinical isolate; assay: Standard MIC assay, AG003; type: cell-based, Escherichia coli
Description: as §2

[12] = test system: AG009 E. coli BM13 AAC(6′)-1B; assay: Standard MIC assay, AG009; type: cell-based, Escherichia coli; conditions: E. coli BM13 AAC(6′)-1B
Description: as §2

[13] = test system: M. smegmatis ΔrrnB 1491A (16S rRNA position 1491 A, eukaryotic cytosolic ribosomes); assay: MIC, recombinant M. smegmatis with mutant ribosomes 1491A; type: cell-based, Mycobacterium smegmatis; conditions: M. smegmatis ΔrrnB 1491A mutant ribosomes; 72 h at 37° C.
Procedure, shortened: as §1

[14] = test system: AG008 E. coli BM13 (ANT2″); assay: Standard MIC assay, AG008; type: cell-based, Escherichia coli; conditions: E. coli BM13 (ANT2″)
Description: as §2

[15] = test system: M. smegmatis ΔrrnB 1408G (16S rRNA position 1408 G, eukaryotic cytosolic ribosomes); assay: MIC, recombinant M. smegmatis with mutant ribosomes 1408G; type: cell-based, Mycobacterium smegmatis; conditions: M. smegmatis ΔrrnB 1408G mutant ribosomes; 72 h at 37° C.
Procedure, shortened: as §1

AG017 E. faecalis JH2-2 = assay: Standard MIC assay, AG017; type: cell-based, Enterococcus faecalis
Description: as §2

[16] = test system: AG001 E. coli clinical isolate; assay: Standard MIC assay, AG001; type: cell-based, Escherichia coli
Description: as §2

| Compound | minimal inhibitory concentrations ΔrrnB 1491C [1] | Minimal inhibitory concentrations AG011 [2] | minimal inhibitory concentrations ΔrrnB [3] | Minimal inhibitory concentrations AG004 [4] | Minimal inhibitory concentrations AG016 (AG016 S. aureus BM3002) | Minimal inhibitory concentrations AG002 [5] | Minimal inhibitory concentrations AG006 (AG006 E. coli BM13) | Minimal inhibitory concentrations AG019 [6] | Minimal inhibitory concentrations AG015 [7] | Minimal inhibitory concentrations AG014 [8] | Minimal inhibitory concentrations AG007 [9] | Minimal inhibitory concentrations AG013 [10] | Minimal inhibitory concentrations AG003 [11] | Minimal inhibitory concentrations AG009 [12] | minimal inhibitory concentrations ΔrrnB 1491A [13] | Minimal inhibitory concentrations AG008 [14] | minimal inhibitory concentrations ΔrrnB 1408G [15] | Minimal inhibitory concentrations AG017 (AG017 E. faecalis JH2-2) | Minimal inhibitory concentrations AG001 [16] |
| --- | --- | --- | --- | --- | --- | --- | --- | --- | --- | --- | --- | --- | --- | --- | --- | --- | --- | --- | --- |
| NC[C@@H]1O[C@H](O[C@H]2[C@@H](O)[C@H](O[C@@H]3[C@@H](O)[C@H](N)C[C@H](N)[C@H]3O[C@H]3O[C@@H]4CO[C@@H](c5ccccc5)O[C@H]4[C@H](O)[C@H]3N)O[C@@H]2CO)[C@H](N)[C@@H](O)[C@@H]1O [Compound 5.1, 4′,6′-O-benzylideneparomomycin] | >512 µg/mL | 8 µg/mL (≈ 11.4 µM) | 4 µg/mL | 32 to 64 µg/mL | 16 to 32 µg/mL | 64 µg/mL (≈ 90.9 µM) | 32 µg/mL (≈ 45.5 µM) | 256 µg/mL (≈ 364 µM) | 32 to 64 µg/mL | 8 µg/mL (≈ 11.4 µM) | 32 µg/mL (≈ 45.5 µM) | 8 to 16 µg/mL | 32 µg/mL (≈ 45.5 µM) | 128 µg/mL (≈ 182 µM) | 512 µg/mL | 32 µg/mL (≈ 45.5 µM) | 512 µg/mL | 32 to 64 µg/mL | 64 µg/mL (≈ 90.9 µM) |
| NC[C@@H]1O[C@H](O[C@H]2[C@@H](O)[C@H](O[C@@H]3[C@@H](O)[C@H](N)C[C@H](N)[C@H]3O[C@H]3O[C@@H]4CO[C@@H](c5ccc(C(F)(F)F)cc5)O[C@H]4[C@H](O)[C@H]3N)O[C@@H]2CO)[C@H](N)[C@@H](O)[C@@H]1O [Compound 5.17, 4′,6′-O-p-Trifluoromethylbenzylideneparomomycin] | 512 µg/mL | 4 µg/mL (≈ 5.18 µM) | 2 to 4 µg/mL | 32 µg/mL (≈ 41.5 µM) | 8 µg/mL (≈ 10.4 µM) | 32 to 64 µg/mL | 32 µg/mL (≈ 41.5 µM) | 128 µg/mL (≈ 166 µM) | 32 µg/mL (≈ 41.5 µM) | 4 µg/mL (≈ 5.18 µM) | 32 µg/mL (≈ 41.5 µM) | 4 to 8 µg/mL | 32 to 64 µg/mL | 64 to 128 µg/mL | 512 µg/mL | 32 µg/mL (≈ 41.5 µM) | >512 µg/mL | 32 µg/mL (≈ 41.5 µM) | 32 to 64 µg/mL |
| NC[C@@H]1O[C@H](O[C@H]2[C@@H](O)[C@H](O[C@@H]3[C@@H](O)[C@H](N)C[C@H](N)[C@H]3O[C@H]3O[C@H](CO)[C@@H](OCCCc4ccccc4)[C@H](O)[C@H]3N)O[C@@H]2CO)[C@H](N)[C@@H](O)[C@@H]1O [Compound 19c, 4′-p-(3-phenylpropyl)paromomycin] | 512 µg/mL |  | 8 to 16 µg/mL | 16 µg/mL (≈ 21.8 µM) | 4 µg/mL (≈ 5.45 µM) | 16 µg/mL (≈ 21.8 µM) | 8 to 16 µg/mL | 32 µg/mL (≈ 43.6 µM) | 16 µg/mL (≈ 21.8 µM) | 2 µg/mL (≈ 2.73 µM) | 8 to 16 µg/mL | 4 to 8 µg/mL | 8 to 16 µg/mL | 32 µg/mL (≈ 43.6 µM) | ≧512 μg/ml | 8 to 16 µg/mL | ≧512 μg/ml | 8 to 16 µg/mL | 16 to 32 µg/mL |
| NC[C@H]1O[C@H](O[C@H]2[C@H](O)[C@@H](O[C@H]3O[C@H](CO)[C@@H](O)[C@H](N)[C@H]3O)[C@H](N)C[C@@H]2N)[C@H](O)[C@@H](O)[C@@H]1O [Kanamycin A, kanamycin A, reference compound] |  | 16 µg/mL (≈ 33 µM) |  | 64 µg/mL (≈ 132 µM) | 4 to 8 µg/mL | 16 µg/mL (≈ 33 µM) | 8 µg/mL (≈ 16.5 µM) | >256 µg/mL | 256 µg/mL (≈ 528 µM) | ≧256 mg/l | 8 µg/mL (≈ 16.5 µM) | ≧256 mg/l | 32 µg/mL (≈ 66 µM) | >256 µg/mL |  | 128 µg/mL (≈ 264 µM) |  | 32 to 64 µg/mL | 16 µg/mL (≈ 33 µM) |
| Gentamicin [reference compound] |  | 4 µg/mL |  | >256 µg/mL | 1 µg/mL | 2 µg/mL | 4 µg/mL | >256 µg/mL | 4 µg/mL | ≧256 mg/l | 128 µg/mL | ≧256 mg/l | ≧256 mg/l | 32 µg/mL |  | 64 µg/mL |  | 8 to 16 µg/mL | 4 µg/mL |
